Source: the NIST ThermoML archive (doi:10.1016/j.jct.2010.11.012)

Experiment: xn = mol fraction of the nth substance listed
Details: Liquid, Bellows volumetry

CCCC [butane] + O=C=O
mass density [kg/m3]
Details | x2 = 0.2322 | x2 = 0.4794 | x2 = 0.715
360 K, 50000 kPa | – | – | 724.09
360 K, 60000 kPa | 629.59 | 679.22 | 747.95
360 K, 70000 kPa | 640.64 | 693.75 | 768.11
360 K, 80000 kPa | 650.47 | 706.48 | 785.74
360 K, 90000 kPa | 659.56 | 717.86 | 801.06
360 K, 100000 kPa | 667.72 | 728.39 | 815.17
360 K, 120000 kPa | 683.01 | 747.06 | 839.59
360 K, 140000 kPa | 695.82 | 763.38 | 861.07
360 K, 160000 kPa | 707.43 | 777.86 | 878.95
360 K, 180000 kPa | 718.38 | 790.57 | 895.71
360 K, 200000 kPa | 727.81 | 802.28 | 910.63
380 K, 20000 kPa | – | 542.77 | –
380 K, 30000 kPa | – | 587.13 | –
380 K, 40000 kPa | – | 616.84 | –
380 K, 50000 kPa | – | 639.71 | –
380 K, 60000 kPa | – | 658.27 | –
380 K, 70000 kPa | – | 674.23 | –
380 K, 80000 kPa | – | 687.97 | –
380 K, 90000 kPa | – | 700.34 | –
380 K, 100000 kPa | – | 711.49 | –
380 K, 120000 kPa | – | 731.12 | –
380 K, 140000 kPa | – | 748.2 | –
380 K, 160000 kPa | – | 763.43 | –
380 K, 180000 kPa | – | 776.93 | –
380 K, 200000 kPa | – | 789.44 | –
400 K, 10000 kPa | 446.86 | – | –
400 K, 20000 kPa | 507.96 | 502.33 | –
400 K, 30000 kPa | 540.33 | 556.87 | 566.01
400 K, 40000 kPa | 563.25 | 591.24 | 621.7
400 K, 50000 kPa | 581.4 | 616.85 | 660.78
400 K, 60000 kPa | 596.43 | 637.36 | 690.23
400 K, 70000 kPa | 609.35 | 654.78 | 714.95
400 K, 80000 kPa | 620.59 | 669.8 | 735.73
400 K, 90000 kPa | 631 | 682.95 | 753.9
